Assay results from patent publication US6569456B2, “Osmotic device containing diltiazem and an ACE inhibitor or diuretic” (priority 2000, dated 2003).

Assay: separate study of diltiazem half-life
Details: in vivo
Description: The delayed release of the diltiazem causes a delay in the onset of diltiazem build-up in the plasma. Accordingly, onset of the side effects (adverse events) associated with diltiazem therapy have a delayed onset and a patient taking the medication before a rest period should not experience any difficulty in falling asleep.

## COc1ccc([C@@H]2Sc3ccccc3N(CCN(C)C)C(=O)[C@@H]2OC(C)=O)cc1 [diltiazem]
  half-life: ~8.5 h
